Source: patent US20250152557A1, “METHODS FOR TREATING SUBJECTS WITH ABDOMINAL OBESITY […] AND/OR IMPAIRED GLUCOSE” (NOVO NORDISK A/S, priority 2022, published 2025)

Columns and labels:
[1] = tested on: subjects with metabolic syndrome; experiment: Phase 1b study, pharmacodynamic effects of INV-202 over 28 days (weight, waist, lipids, glucose, endocrine and renal markers); assay type: in vivo, human
Procedure: A phase 1b study to examine the pharmacokinetic and pharmacodynamic effects of INV-202 in subjects with metabolic syndrome as defined by hypertriglyceridemia, abdominal obesity, and impaired glucose tolerance over 28 days was performed.
This is single center, Phase 1B, randomized, double-blind, placebo-controlled, 28-day repeat dose study.
The study includes subjects with evidence of metabolic syndrome and glucose intolerance that are randomized 1:1 to receive either INV-202 or placebo. 20 subjects will receive 25 mg of INV-202 and 20 subjects will receive a matching placebo daily for 28 consecutive days, for a total of 40 subjects.
Subjects will receive a daily oral dose of INV-202 25 mg or a matching placebo for 28 consecutive days.
Body measurements performed at screening will include height and weight measurements, waist circumference, as well as BMI calculation. Height will only be measured at screening. Weight and waist circumference will also be measured pre-dose on Days 1, 8, 15, and 22, and on Day 29 (+2 days). BMI will be calculated as needed.
Weight and waist circumference will be measured in triplicate using a standard measuring method. The same scale should be used at all visits for a given subject. The scale should be calibrated according to the manufacturer's recommendation. A medical grade scale for weight should be used.
(§1) The following will be assessed: sodium, potassium, chloride, glucose, blood urea nitrogen, creatinine, creatinine clearance, direct bilirubin, indirect bilirubin, bilirubin total, ALP, AST, ALT, albumin, lactate dehydrogenase, calcium, lipase, amylase, phosphorus, HbA1C, serum ferritin and total protein.
In addition, a lipid profile will also be assessed: total cholesterol, HDL, LDL, VLDL and triglycerides. […]
The following will be assessed only pre-dose on Days 1, 8, 15, and 22, on Day 29 (+2 days), and at the FU Visit/EOS/ET on Day 35 (+2 days): C-peptide, insulin, TSH, and T4.
The OGTT will be performed at screening, on Day −1, and on Day 29 (+2 days). The OGTT will not need to be performed at screening if there is evidence of HbA1C≥5.7% but ≤6.4% obtained within the last 3 months.
For the OGTT performed on Day 29 (+2 days), a 75 g glucose load will be administered with blood draws at 30 minutes, 1 hour, 2 hours and 3 hours post-intake.
The following PD parameters will be evaluated: • 1) 0-3 hour AUC blood glucose level during OGTT • 2) Plasma insulin level—change from baseline to EOS/ET • 3) C-peptide level—change from baseline to EOS/ET • 4) Plasma lipid profile (HDL, LDL, VLDL, triglycerides)—change from baseline to EOS/ET • 5) Adiponectin and leptin—change from baseline to EOS/ET • 6) hs-CRP—change from baseline to EOS/ET • 7) Weight—change from baseline to EOS/ET • 8) Waist circumference—change from baseline to EOT/ET • 9) Appetite and Food Intake questionnaire score—change from baseline to EOT/ET • 10) Urine albumin to creatinine ratio—change from baseline to EOS/ET
All PD analyses will be descriptive only and no formal statistical analysis is planned. Descriptive statistics will be used to describe change from baseline in values including glucose AUC during OGTT, fasting insulin level and C-peptide levels, lipids (e.g., triglycerides, HDL), adiponectin and other biomarkers. Exploratory analysis in PD versus AEs may be performed to evaluate the Exposure-Response.

[2] = tested on: subjects with metabolic syndrome; experiment: Phase 1b study, Columbia Suicidality Severity Rating Scale (C-SSRS); assay type: in vivo, human; settings: INV-202 group, EOT; 25 mg oral daily for 28 days
From the text: A suicide risk assessment will be performed using the C-SSRS questionnaire at screening, Day −1 (if more than 21 days have passed since the screening C-SSRS), Day 29 (+2 days) and at the FU Visit/EOS/ET on Day 35 (+2 days).
This scale will be administered by a member of the medical team, completed on site, and will be on paper. The “Lifetime” C-SSRS questionnaire template will be used at the screening visit and on Day −1 (if applicable), and the “since last visit” C-SSRS questionnaire template will be used on Day 29 (+2 days) and at the FU Visit/EOS/ET. If the Investigator determines that a subject is at risk of suicide or self-harm, he/she must immediately be discontinued from the study and appropriate measures to ensure the subject's safety and obtain mental health evaluation must be implemented. The event should be recorded as either an AE or a SAE, as determined by the Investigator, and reported within 24 hours to the Sponsor.

[3] = tested on: DIO mouse model; experiment: Effect on body weight and metabolic parameters in DIO mouse model; assay type: in vivo
From the text: The effect of INV-202 on body weight and food consumption was studied in a DIO mouse model.

[4] = tested on: subjects with metabolic syndrome; experiment: Phase 1b study, vital signs; assay type: in vivo, human; settings: 25 mg oral daily for 28 days
From the text: BP, HR, RR and OT will be measured at screening and pre-dose on Days 1, 8, 15, and 22, on Day 29 (+2 days), and at the FU Visit/EOS/ET on Day 35 (+2 days). Vital signs will be measured in a sitting position (except for safety reasons and when ECG are planned around the same time). When vital signs measurements coincide with a blood draw, they should preferably be performed before the blood collection, whenever possible.

[5] = tested on: subjects with metabolic syndrome; experiment: Phase 1b study, liver safety (liver chemistry); assay type: in vivo, human
From the text: as §1
The hepatic safety of all randomized subjects will be assessed through the use of the following algorithm based on FDA DILI management guidelines (Center for Drug Evaluation and Research (CDER), FDA. Guidance for Industry: Drug-Induced Liver Injury: Premarketing Clinical Evaluation. July 2009).
An increase of serum ALT or AST>3×ULN should be followed by repeat testing within 48 to 72 hours of all four of the usual serum measures (ALT, AST, ALP, and TBL) to confirm the abnormalities and to determine if they are increasing or decreasing. There also should be inquiry made about symptoms.

[6] = background statement, cited from earlier work
[7] = 25 mg oral daily for 28 days, SD in next cell
[8] = 25 mg oral daily for 28 days, Table 3, SD in next cell
[9] = 25 mg oral daily for 28 days, endocrine lab data, Table 3
[10] = following 28-days of repeat dosing

SMILES: CC(=O)N/C(N)=N/C(=N\S(=O)(=O)c1ccc(C(F)(F)F)cc1)N1C[C@H](c2ccccc2)C(c2ccc(Cl)cc2)=N1 [INV-202, N-{[(S)-{[3-(4-chlorophenyl)-4-phenyl-4,5-dihydro-1H-pyrazol-1-yl][4-(trifluoromethyl)benzenesulfonamido]methylidene}amino]methanimidoyl}acetamide]
- BMI, change from baseline ([1]; 25 mg oral daily for 28 days): −1.20 kg/m^2
- HDL (%), change from baseline ([1]; 25 mg oral daily for 28 days): 0.13%
- Triglycerides (%), change from baseline ([1]; 25 mg oral daily for 28 days): −7.9%
- OGTT (0-3 hour AUC blood glucose), change from baseline ([1]; 25 mg oral daily for 28 days, 75 g glucose load, SD in next cell): 2.24 mmol·h/L
- C-peptide, change from baseline [1, 7]: 0.036 nmol/L
- HDL, change from baseline [1, 7]: 0.0015 mmol/L
- HgbA1C, change from baseline [1, 7]: −0.005%
- Insulin, change from baseline [1, 7]: -5.0 pmol/L
- LDL, change from baseline [1, 7]: -0.50 mmol/L
- Total Chol., change from baseline [1, 7]: -0.56 mmol/L
- Triglycerides, change from baseline [1, 7]: -0.179 mmol/L
- VLDL, change from baseline [1, 7]: -0.08 mmol/L
- Waist, change from baseline [1, 7]: −1.91 cm
- Weight (%), change from baseline [1, 7]: −3.33%
- Weight, change from baseline [1, 7]: -3.50 kg
- hs-CRP, change from baseline [1, 7]: -1.6 mg/L
- Leptin (%) ([1]; 25 mg oral daily for 28 days, Table 3): −18%
- Adiponectin [1, 8]: 0.15 mg/L
- Leptin [1, 8]: -2.64 µg/L
- T4 [1, 9]: 0.516 pmol/L
- TSH [1, 9]: −0.014 mIU/L
- eGFR (CKD-EPI 2021) ([1]; 25 mg oral daily for 28 days, renal lab data, Table 3): 3.23 mL/min/1.73 m2
- maximum weight loss by percentage ([1]; after 28 days of treatment, individual patient maximum): 6%
- lowest weight loss by percentage ([1]; after 28 days of treatment, individual patient minimum): 0.1%
- average weight loss at first clinic visit ([1]; day 8, statistically significant): 1.4%
- weight change of individual patients ([1]; every single patient on INV-202): lost weight
- C-SSRS: Non-specific active suicidal thoughts [2]: 0
- C-SSRS: Suicidal behaviour [2]: 0
- C-SSRS: Wished to be dead [2]: 0
- C-peptide levels [3]: significant effects in reducing C-peptide levels
- glucose AUC in an OGTT test [3]: decreased glucose AUC
- insulin levels [3]: significant effects in reducing
- ALT [3, 10]: significantly decreased ALT
- liver triglyceride [3, 10]: significantly decreased
- body weight ([3]; following 10 days of dosing): dose dependently reduce body weight
- Diastolic Blood Pressure (DBP), change from baseline [4]: −0.25 mmHg
- Heart Rate, change from baseline [4]: 2.3 bpm
- Systolic Blood Pressure (SBP), change from baseline [4]: −4.65 mmHg
- Temp, change from baseline [4]: −0.045 °C
- liver chemistry ([5]; all patients throughout the study): within normal limits
- changes for bilirubin (total, direct, indirect) or transaminases (AST and ALT) ([5]; throughout the study): no significant changes

SMILES: Cc1c(C(=O)NN2CCCCC2)nn(-c2ccc(Cl)cc2Cl)c1-c1ccc(Cl)cc1 [Rimonabant]
- efficacy in metabolic syndrome [6]: effective in treating metabolic syndrome
- side effects ([6]; resulted in withdrawal from the market): caused neuropsychiatric (i.e. CNS-related) side effects
